# Test results taken from publication PMC6390583 (BMC rheumatology, 2018).
# Legend:
# [1] = system: IFNγ induced STAT1 phosphorylation; assay: IFNγ induced STAT1 phosphorylation in CD14+ monocytes of PBMC; assay type: cell-based; conditions: Homo sapiens, Monocyte, JAK 1/2, read-out: Human IC50, IFNγ pSTAT1
# Protocol: (§1) IL-6 and Oncostatin M (OSM) induced STAT3 phosphorylation was assessed in the human erythroleukemia TF-1 cell line. Erythropoietin-induced STAT5 phosphorylation was assessed in the human UT-7 cell line. IL-2 and IL-15 induced STAT5 phosphorylation was assessed in activated human T-cells. Detection of phosphorylated STATs was accomplished with the SureFire pSTAT5 or pSTAT3 Assay kit (Perkin Elmer, Hopkinton, MA) per standard manufacturer’s protocol, with the exception of an overnight incubation following addition of donor beads before detection on the EnVision (Perkin Elmer, Hopkinton, MA). IFNγ induced STAT1 phosphorylation was assessed in the CD14+ monocyte population in human PBMC by flow cytometry. CD14 BV421 was purchased from BD Biosciences (San Jose, CA). STAT1 PE ([…]) was purchased from ThermoFisher Scientific (Waltham, MA). IL-4 and IL-13 induced STAT6 phosphorylation and IL-31 induced STAT3 phosphorylation were assessed in adult human epithelial keratinocytes (HEKa, ThermoFisher Scientific, Waltham, MA) by flow cytometry. STAT6 PE (pY641) and STAT3 PE (Y705) were purchased from BD Biosciences (San Jose, CA).
# [2] = system: CD3-/CD16+/CD56+ NK cells; assay: Circulating NK cell analysis after 14 days dosing; assay type: in vivo, rat
# Protocol: Blood was collected and stained using BD MultiTest IMK kit (BD Biosciences, San Jose, CA) per manufacturer’s instructions. NK cell numbers were determined by using FlowJo analysis software (FlowJo, LLC, Ashland, OR) and by examining the CD3^−/CD16^+/CD56^+ population. The number of cells/μL was calculated by using the following equation: (# events in cell population/# of events in absolute bead count region) × (# beads per test/test volume), with the value beads per test indicated on the BD Trucount tube label.
# [3] = system: IL-6 induced pSTAT3, CD3+ whole blood; assay: IL-6 signaling in human whole blood, CD3+ T-cell population; assay type: cell-based; conditions: JAK 1
# IGF1R = IGF1R (Homo sapiens, UniProt P08069); assay: trFRET binding kinome profiling
# Protocol: (§2) JAK activity assays using isolated kinase domains in the presence of 0.1 mM ATP and trFRET kinome profiling were conducted as described previously (17).
# PDGFRB = PDGFRB (Homo sapiens, UniProt P09619); assay: trFRET binding kinome profiling
# Protocol: as §2
# PKG1A = PKG1A (Homo sapiens, UniProt Q13976); assay: trFRET binding kinome profiling
# Protocol: as §2
# TrkB = TrkB (Homo sapiens, UniProt Q16620); assay: trFRET binding kinome profiling
# Protocol: as §2
# Akt1 = Akt1 (Homo sapiens, UniProt P31749); assay: trFRET binding kinome profiling
# Protocol: as §2
# DYRK1B = DYRK1B (Homo sapiens, UniProt Q9Y463); assay: trFRET binding kinome profiling
# Protocol: as §2
# ALK = ALK (Homo sapiens, UniProt Q9UM73); assay: trFRET binding kinome profiling
# Protocol: as §2
# p38 alpha = p38 alpha (Homo sapiens, UniProt Q16539); assay: trFRET binding kinome profiling
# Protocol: as §2
# Pim2 = Pim2 (Homo sapiens, UniProt Q9P1W9); assay: trFRET binding kinome profiling
# Protocol: as §2
# STK16 = STK16 (Homo sapiens, UniProt O75716); assay: trFRET binding kinome profiling
# Protocol: as §2
# ACVR1 = ACVR1 (Homo sapiens, UniProt Q04771); assay: trFRET binding kinome profiling
# Protocol: as §2
# Zipk = Zipk (Homo sapiens, UniProt O43293); assay: trFRET binding kinome profiling
# Protocol: as §2
# GRK5 = GRK5 (Homo sapiens, UniProt P34947); assay: trFRET binding kinome profiling
# Protocol: as §2
# RET = RET (Homo sapiens, UniProt P07949); assay: trFRET binding kinome profiling
# Protocol: as §2
# MST1 = MST1 (Homo sapiens, UniProt Q13043); assay: trFRET binding kinome profiling
# Protocol: as §2
# CDK2 = CDK2 (Homo sapiens, UniProt P24941); assay: trFRET binding kinome profiling
# Protocol: as §2
# DYRK1A = DYRK1A (Homo sapiens, UniProt Q13627); assay: trFRET binding kinome profiling
# Protocol: as §2
# MAP4K2 = MAP4K2 (Homo sapiens, UniProt Q12851); assay: trFRET binding kinome profiling
# Protocol: as §2
# JNK1 = JNK1 (Homo sapiens, UniProt P45983); assay: trFRET binding kinome profiling
# Protocol: as §2
# PKA = PKA (Homo sapiens, UniProt P17612); assay: trFRET binding kinome profiling
# Protocol: as §2
# KDR = KDR (Homo sapiens, UniProt P35968); assay: trFRET binding kinome profiling
# Protocol: as §2
# AMPK = assay: trFRET binding kinome profiling
# Protocol: as §2
# [4] = system: IL-6 induced pSTAT3, CD14+ whole blood; assay: IL-6 signaling in human whole blood, CD14+ monocytic population; assay type: cell-based; conditions: JAK 1
# IL-6 induced pSTAT3 = assay: Clinical ex vivo IL-6 stimulation of whole blood, pSTAT3; assay type: in vivo, healthy volunteers
# Protocol: Recombinant human IL-6 (400 ng/ml), or IL-7 (400 ng/ml), (R&D Systems, Minneapolis, MN) was added to blood and incubated for 10 min at 37°C. Surface antibodies were added (CD14-APC, CD3-fluorescein isothiocyanate [FITC]; BD Biosciences, San Jose, CA) and incubated on ice for an additional 20 min. Samples were lysed (Lyse/Fix, BD Biosciences, San Jose, CA) and incubated for 10 min at 37°C. Samples were washed and stored at − 70°C. For intracellular staining, samples were thawed, washed, and resuspended in BD Perm buffer III (BD Biosciences, San Jose, CA) on ice for 30 min. Samples were washed and stained with pSTAT5-PE or pSTAT3-PE (BD Biosciences, San Jose, CA) for 60 min at room temperature and then analyzed immediately on a FACSCalibur. Geometric means were determined using FlowJo analysis software.
# [5] = system: Erythropoietin-induced STAT5 phosphorylation; assay: Erythropoietin-induced STAT5 phosphorylation in UT-7 cells; assay type: cell-based; conditions: Homo sapiens; UT7 cells, JAK 2; read-out: Human IC50, Epo pSTAT5
# Protocol: as §1
# Chain of Zipk (O43293 whole entry, species assumed): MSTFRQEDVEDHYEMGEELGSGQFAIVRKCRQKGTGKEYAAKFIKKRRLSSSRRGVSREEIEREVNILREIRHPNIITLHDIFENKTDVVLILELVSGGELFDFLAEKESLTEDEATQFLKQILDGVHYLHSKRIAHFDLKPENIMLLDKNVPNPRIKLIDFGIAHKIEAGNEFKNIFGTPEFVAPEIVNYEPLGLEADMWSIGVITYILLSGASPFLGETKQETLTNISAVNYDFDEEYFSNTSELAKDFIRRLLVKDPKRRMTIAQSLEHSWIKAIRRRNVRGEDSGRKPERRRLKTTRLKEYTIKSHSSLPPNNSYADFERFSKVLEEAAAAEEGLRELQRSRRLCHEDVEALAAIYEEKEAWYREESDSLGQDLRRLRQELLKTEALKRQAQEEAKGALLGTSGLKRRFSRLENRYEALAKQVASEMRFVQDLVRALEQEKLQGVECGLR
# Chain of p38 alpha (Q16539 whole entry): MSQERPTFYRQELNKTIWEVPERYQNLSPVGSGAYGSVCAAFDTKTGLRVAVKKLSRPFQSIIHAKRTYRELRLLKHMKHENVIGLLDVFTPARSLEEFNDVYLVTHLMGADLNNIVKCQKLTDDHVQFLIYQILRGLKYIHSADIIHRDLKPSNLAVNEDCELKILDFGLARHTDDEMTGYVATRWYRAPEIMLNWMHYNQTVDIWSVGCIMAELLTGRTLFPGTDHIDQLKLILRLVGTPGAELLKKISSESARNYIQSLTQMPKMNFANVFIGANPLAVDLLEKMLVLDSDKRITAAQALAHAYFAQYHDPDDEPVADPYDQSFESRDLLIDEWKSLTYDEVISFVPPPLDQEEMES
# Chain of STK16 (O75716 whole entry, species assumed): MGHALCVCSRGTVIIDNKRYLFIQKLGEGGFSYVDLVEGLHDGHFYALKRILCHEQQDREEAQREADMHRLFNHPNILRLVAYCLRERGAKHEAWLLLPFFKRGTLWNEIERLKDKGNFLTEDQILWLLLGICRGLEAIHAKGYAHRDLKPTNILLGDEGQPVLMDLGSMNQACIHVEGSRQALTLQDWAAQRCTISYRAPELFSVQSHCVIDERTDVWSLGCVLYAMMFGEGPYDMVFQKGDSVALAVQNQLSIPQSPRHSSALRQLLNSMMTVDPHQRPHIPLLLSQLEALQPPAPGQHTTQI
# Chain of RET (P07949 29-1114, species assumed): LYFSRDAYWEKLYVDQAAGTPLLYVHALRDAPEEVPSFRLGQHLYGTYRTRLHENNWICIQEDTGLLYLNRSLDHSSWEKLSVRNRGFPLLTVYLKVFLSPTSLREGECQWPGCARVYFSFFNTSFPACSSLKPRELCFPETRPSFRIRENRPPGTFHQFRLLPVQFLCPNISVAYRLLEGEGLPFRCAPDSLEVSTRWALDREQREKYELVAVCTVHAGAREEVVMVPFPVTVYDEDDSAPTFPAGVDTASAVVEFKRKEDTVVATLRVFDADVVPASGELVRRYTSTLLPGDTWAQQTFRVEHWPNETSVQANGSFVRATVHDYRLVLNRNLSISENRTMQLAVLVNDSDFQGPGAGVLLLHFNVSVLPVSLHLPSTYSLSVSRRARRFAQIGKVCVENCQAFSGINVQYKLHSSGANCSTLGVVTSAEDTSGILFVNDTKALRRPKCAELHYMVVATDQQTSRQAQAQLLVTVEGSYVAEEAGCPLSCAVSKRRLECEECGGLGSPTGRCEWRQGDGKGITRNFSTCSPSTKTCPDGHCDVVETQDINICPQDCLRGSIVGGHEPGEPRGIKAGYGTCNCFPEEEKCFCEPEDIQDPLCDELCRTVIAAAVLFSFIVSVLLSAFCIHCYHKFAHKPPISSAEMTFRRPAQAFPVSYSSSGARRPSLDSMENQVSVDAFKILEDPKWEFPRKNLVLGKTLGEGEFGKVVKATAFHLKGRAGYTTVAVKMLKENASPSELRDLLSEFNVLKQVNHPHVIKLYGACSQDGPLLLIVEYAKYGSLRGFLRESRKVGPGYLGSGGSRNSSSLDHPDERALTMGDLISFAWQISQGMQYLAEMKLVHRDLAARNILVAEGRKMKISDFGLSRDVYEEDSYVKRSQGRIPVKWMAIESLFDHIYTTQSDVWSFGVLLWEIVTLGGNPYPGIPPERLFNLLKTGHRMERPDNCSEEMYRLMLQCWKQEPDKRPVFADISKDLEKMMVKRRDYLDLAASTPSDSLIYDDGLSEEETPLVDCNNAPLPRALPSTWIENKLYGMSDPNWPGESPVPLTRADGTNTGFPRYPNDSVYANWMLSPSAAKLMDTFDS
# Chain of MST1 (Q13043 whole entry): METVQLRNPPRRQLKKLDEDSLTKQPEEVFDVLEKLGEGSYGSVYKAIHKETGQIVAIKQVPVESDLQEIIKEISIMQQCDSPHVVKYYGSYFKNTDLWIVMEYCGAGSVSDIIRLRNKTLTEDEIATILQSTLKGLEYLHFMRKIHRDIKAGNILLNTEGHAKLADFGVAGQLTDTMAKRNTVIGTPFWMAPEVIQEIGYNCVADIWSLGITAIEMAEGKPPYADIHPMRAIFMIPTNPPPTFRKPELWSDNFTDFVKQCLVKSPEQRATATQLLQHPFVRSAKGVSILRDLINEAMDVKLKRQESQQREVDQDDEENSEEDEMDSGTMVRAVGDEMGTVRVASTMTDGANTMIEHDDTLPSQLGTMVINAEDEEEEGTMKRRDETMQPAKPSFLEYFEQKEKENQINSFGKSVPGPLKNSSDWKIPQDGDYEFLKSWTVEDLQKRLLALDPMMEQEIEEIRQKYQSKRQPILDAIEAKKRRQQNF
# Chain of TrkB (Q16620 32-822, species assumed): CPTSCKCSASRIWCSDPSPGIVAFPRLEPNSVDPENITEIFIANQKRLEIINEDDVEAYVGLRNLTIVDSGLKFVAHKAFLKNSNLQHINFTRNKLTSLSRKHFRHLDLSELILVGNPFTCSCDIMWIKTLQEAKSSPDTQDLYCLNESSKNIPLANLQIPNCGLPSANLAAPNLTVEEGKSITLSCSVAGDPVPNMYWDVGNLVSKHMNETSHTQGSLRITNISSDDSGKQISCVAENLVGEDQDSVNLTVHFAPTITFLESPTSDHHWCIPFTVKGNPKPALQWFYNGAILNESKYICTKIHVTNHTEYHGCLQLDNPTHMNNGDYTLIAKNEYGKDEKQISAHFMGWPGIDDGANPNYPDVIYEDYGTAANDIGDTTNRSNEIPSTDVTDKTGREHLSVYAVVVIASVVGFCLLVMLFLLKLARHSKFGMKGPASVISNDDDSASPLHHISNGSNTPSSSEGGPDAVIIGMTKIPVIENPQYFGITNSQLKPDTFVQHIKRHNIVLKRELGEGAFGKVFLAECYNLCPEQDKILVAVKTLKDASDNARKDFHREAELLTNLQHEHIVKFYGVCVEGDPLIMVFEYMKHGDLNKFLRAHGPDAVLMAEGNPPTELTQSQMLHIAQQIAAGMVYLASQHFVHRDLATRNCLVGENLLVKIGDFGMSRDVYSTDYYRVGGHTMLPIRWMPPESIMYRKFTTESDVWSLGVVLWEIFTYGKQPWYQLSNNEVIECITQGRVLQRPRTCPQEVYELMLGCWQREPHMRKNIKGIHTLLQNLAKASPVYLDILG
# Chain of KDR (P35968 20-1356, species assumed): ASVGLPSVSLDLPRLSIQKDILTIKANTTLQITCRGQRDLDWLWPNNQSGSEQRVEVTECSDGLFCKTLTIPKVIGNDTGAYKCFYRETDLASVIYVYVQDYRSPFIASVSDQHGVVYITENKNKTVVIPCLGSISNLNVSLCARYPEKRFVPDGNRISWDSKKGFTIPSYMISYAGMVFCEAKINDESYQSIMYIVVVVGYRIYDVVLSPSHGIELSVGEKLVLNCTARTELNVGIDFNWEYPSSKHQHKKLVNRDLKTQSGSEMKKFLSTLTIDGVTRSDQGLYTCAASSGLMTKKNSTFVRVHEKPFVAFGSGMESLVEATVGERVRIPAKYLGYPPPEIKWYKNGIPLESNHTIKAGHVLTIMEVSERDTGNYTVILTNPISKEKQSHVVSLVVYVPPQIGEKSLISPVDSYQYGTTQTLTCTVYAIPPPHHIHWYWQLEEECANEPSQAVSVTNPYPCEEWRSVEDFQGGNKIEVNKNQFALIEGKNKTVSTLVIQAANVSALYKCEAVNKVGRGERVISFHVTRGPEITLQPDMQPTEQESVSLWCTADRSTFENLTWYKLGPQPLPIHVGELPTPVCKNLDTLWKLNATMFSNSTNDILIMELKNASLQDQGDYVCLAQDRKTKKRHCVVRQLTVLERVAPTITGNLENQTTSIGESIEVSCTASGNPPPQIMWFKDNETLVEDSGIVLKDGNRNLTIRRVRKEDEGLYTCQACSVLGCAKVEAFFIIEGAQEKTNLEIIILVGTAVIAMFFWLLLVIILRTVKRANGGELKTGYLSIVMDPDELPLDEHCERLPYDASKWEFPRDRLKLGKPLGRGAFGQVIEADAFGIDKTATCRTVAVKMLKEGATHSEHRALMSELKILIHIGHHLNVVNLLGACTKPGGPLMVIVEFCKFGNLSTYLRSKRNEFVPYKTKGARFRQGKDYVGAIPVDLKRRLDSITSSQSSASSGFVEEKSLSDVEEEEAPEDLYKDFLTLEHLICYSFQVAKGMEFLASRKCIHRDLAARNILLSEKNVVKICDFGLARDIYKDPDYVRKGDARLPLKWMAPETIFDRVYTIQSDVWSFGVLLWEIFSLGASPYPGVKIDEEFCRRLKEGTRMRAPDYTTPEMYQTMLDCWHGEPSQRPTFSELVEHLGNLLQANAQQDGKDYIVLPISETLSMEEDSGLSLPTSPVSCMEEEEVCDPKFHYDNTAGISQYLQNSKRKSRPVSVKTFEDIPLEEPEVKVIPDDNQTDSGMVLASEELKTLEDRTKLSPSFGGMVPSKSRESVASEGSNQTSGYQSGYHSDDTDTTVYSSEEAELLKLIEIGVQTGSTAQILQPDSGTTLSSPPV
structure (smiles),measurement,setting,value
"CC[C@@H]1CN(C(=O)NCC(F)(F)F)C[C@@H]1c1cnc2cnc3[nH]ccc3n12 [upadacitinib, (3S,4R)-3-ethyl-4-(3H-imidazo [1,2-a]pyrrolo [2,3-e]pyrazin-8-yl)-N-(2,2,2-trifluoroethyl) pyrrolidine-1-carboxamide]",IC50,[1],0.019 µM
same,AUC60 for decrease of circulating NK cell numbers,[2]; naive rats dosed orally for 14 days,480 ng·h/mL
same,Decrease in circulating NK cells at AUC60,"[2]; rat, at AUC60 of paw swelling",25%
same,IC50,[3],0.207 µM
same,IC50,IGF1R,> 10 µM
same,IC50,PDGFRB,> 10 µM
same,IC50,PKG1A,> 10 µM
same,IC50,TrkB,> 10 µM
same,IC50,Akt1,> 10 µM
same,IC50,DYRK1B,> 10 µM
same,IC50,ALK,> 5.5 µM
same,IC50,p38 alpha,> 10 µM
same,IC50,Pim2,> 10 µM
same,IC50,STK16,9.7 µM
same,IC50,ACVR1,> 10 µM
same,IC50,Zipk,> 10 µM
same,IC50,GRK5,> 7.9 µM
same,IC50,RET,2.4 µM
same,IC50,MST1,> 10 µM
same,IC50,CDK2,> 10 µM
same,IC50,DYRK1A,> 10 µM
same,IC50,MAP4K2,> 10 µM
same,IC50,JNK1,> 10 µM
same,IC50,PKA,> 10 µM
same,IC50,KDR,> 1.5 µM
same,IC50,AMPK,> 4.5 µM
same,IC50,[4],0.078 µM
same,inhibition at 3 mg,"IL-6 induced pSTAT3; Homo sapiens, 1 h",~50%
same,Dose reaching maximal pSTAT3 inhibition,"IL-6 induced pSTAT3; healthy volunteers, IL-6 stimulation, 1 h post dose",36 mg
same,IC50,[5],0.649 µM
